Test results reported in ChEMBL document CHEMBL5678803, “Selective blockade of TRPA1 channel attenuates pathological pain without altering noxious cold sensation or body temperature regulation” (Pain, 2011).

How the values were obtained:
[1] = Toxicity in Sprague-Dawley rat assessed as increase in body temperature at 3.88 mg/kg, po measured after 480 mins by radiotelemetric analysis; format: organism-based; settings: in vivo, 8 h
[2] = Toxicity in Sprague-Dawley rat assessed as effect on tail withdrawal latency to hot water immersion at 55 degreeC at 11.6 mg/kg, po by tail immersion test; format: organism-based; settings: in vivo
[3] = Toxicity in Sprague-Dawley rat assessed as increase in body temperature at 1.16 mg/kg, po measured after 480 mins by radiotelemetric analysis; format: organism-based; settings: in vivo, 8 h
[4] = biological target: T1, Transient receptor potential cation channel subfamily A member 1 (Homo sapiens, UniProt O75762); experiment: Antagonist activity at recombinant human TRPA1 expressed in HEK293F cells assessed as reduction in AITC-induced increase in intracellular Ca2+ level by FLIPR-based Ca2+ assay; format: cell-based
T1 sequence (O75762 whole entry): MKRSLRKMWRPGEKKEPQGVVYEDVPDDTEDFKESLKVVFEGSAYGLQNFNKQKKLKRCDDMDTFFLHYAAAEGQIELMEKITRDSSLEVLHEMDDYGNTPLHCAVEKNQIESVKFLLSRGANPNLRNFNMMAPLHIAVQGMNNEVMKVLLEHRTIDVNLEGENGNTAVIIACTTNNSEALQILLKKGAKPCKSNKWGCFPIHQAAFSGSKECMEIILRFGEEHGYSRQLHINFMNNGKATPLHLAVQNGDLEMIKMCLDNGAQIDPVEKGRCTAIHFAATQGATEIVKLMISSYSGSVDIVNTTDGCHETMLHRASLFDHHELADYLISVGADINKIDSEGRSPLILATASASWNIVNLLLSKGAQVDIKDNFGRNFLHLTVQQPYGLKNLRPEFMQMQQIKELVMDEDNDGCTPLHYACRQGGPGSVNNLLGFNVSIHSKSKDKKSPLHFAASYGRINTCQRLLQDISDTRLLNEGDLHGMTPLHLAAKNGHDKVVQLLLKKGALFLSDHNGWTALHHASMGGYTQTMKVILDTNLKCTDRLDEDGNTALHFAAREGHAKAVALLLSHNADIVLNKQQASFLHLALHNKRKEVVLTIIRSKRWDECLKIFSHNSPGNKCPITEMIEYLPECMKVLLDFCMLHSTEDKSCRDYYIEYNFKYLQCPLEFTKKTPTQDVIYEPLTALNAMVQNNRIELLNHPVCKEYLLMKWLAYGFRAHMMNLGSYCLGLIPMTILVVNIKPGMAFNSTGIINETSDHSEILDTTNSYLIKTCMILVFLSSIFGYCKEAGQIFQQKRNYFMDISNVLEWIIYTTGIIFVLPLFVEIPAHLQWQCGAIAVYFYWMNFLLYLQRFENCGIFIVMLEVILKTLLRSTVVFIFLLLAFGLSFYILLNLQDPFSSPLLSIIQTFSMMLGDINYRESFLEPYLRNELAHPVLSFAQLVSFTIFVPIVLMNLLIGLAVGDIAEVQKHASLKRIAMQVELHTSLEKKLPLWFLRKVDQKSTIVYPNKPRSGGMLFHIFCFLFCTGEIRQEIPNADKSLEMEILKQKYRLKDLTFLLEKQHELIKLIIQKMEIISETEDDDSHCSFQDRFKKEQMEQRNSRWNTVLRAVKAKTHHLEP

[5] = biological target: Cannabinoid receptor 2 (Homo sapiens) (UniProt P34972); experiment: Inhibition of CB2 receptor (unknown origin) at 10 micromol/L by radioligand binding assay relative to control; settings: dose 10.0 µmol/L
Cannabinoid receptor 2 (Homo sapiens), sequence (P34972 whole entry): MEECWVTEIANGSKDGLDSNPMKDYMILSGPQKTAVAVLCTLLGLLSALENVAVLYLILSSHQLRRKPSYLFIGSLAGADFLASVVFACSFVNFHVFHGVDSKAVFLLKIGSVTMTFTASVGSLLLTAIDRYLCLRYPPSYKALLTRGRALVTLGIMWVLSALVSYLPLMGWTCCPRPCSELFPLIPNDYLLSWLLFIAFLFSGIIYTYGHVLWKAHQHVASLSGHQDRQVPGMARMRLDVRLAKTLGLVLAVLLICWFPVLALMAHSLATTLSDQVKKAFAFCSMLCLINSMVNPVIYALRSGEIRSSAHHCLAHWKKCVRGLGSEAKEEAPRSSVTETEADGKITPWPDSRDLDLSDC

Homo sapiens [6] = species: Homo sapiens; experiment: Inhibition of sigma receptor (unknown origin) at 10 micromol/L by radioligand binding assay relative to control; settings: dose 10.0 µmol/L
[7] = biological target: Transient receptor potential cation channel subfamily A member 1 (Rattus norvegicus, UniProt Q6RI86); experiment: Antagonist activity at rat TRPA1 expressed in HEK293F cells assessed as reduction in AITC-induced increase in intracellular Ca2+ level by FLIPR-based Ca2+ assay; format: cell-based
Transient receptor potential cation channel subfamily A member 1 (Rattus norvegicus, UniProt Q6RI86), sequence (Q6RI86 whole entry): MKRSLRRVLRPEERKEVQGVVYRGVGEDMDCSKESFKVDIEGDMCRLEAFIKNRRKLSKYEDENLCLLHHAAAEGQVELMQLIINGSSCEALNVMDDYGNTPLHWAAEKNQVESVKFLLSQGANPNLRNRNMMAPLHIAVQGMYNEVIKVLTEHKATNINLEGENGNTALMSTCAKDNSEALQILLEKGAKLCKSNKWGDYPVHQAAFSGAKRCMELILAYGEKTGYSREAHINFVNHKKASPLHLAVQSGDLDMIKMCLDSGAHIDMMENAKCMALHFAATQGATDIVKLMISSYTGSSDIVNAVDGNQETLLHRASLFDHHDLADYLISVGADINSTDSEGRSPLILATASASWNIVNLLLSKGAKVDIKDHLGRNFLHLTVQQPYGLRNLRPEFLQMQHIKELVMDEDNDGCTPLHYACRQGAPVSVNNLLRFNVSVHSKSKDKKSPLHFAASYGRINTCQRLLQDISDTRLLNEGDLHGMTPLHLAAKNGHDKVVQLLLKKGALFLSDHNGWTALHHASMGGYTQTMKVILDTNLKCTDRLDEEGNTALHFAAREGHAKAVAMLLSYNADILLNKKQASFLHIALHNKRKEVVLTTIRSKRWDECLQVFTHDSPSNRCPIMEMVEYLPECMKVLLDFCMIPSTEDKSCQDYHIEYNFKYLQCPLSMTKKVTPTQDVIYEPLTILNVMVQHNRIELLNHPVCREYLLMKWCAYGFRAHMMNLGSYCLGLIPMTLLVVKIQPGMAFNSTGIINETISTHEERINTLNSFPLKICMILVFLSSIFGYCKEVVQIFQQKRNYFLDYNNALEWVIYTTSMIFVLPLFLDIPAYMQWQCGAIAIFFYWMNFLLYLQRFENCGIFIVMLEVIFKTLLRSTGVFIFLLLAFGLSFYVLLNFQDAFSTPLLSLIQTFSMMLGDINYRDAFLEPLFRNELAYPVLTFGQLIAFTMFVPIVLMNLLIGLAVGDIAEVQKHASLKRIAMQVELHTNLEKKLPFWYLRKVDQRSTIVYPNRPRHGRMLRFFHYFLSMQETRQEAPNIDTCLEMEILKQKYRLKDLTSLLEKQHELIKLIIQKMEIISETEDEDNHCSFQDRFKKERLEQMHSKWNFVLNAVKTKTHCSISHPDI

Homo sapiens [8] = species: Homo sapiens; experiment: Inhibition of sodium channel (unknown origin) at 10 micromol/L by radioligand binding assay relative to control; settings: dose 10.0 µmol/L
Rattus norvegicus [9] = experiment: Antiallodynic activity in CCI-induced neuropathic pain Sprague-Dawley rat model assessed as attenuation of mechanical allodynia at 100 mg/kg, po administered with compound for 1 hrs and measured 10 to 14 days after surgery relative to control; format: functional; settings: time 241-337 hrs
Rattus norvegicus [10] = experiment: Antiallodynic activity in spinal nerve ligation-induced neuropathic pain Sprague-Dawley rat model assessed as attenuation of mechanical allodynia at 100 mg/kg, po administered with compound for 1 hrs and measured 10 to 14 days after surgery relative to control; format: functional; settings: time 241-337 hrs
Rattus norvegicus [11] = experiment: Antiallodynic activity in CFA-induced mechanical allodynia Sprague-Dawley rat model assessed as attenuation of mechanical allodynia at 100 mg/kg, po administered with compound for 1 hrs and measured 48 hrs after CFA injection relative to control; format: functional; settings: time 49 hrs
[12] = biological target: T1, Transient receptor potential cation channel subfamily A member 1; experiment: Antagonist activity at TRPA1 (unknown origin)

For `Cc1nc(Nc2cccc3c2C[C@H](O)CC3)oc1-c1ccc(C(F)(F)F)cc1`, the deltaT [1] was 0.9 °C, the Activity [2] was “Toxic” and the deltaT [3] was 0.6 °C.
For `CC(C)c1ccc(NC(=O)Cn2cnc3c2c(=O)n(C)c(=O)n3C)cc1`, the IC50 [4] was 6.9 µM, the inhibition [5] was 33% and the inhibition (Homo sapiens [6]) was 37%. For the same compound, the IC50 [7] was 6.9 µM and the inhibition (Homo sapiens [8]) was 40%.
`NCC1(CC(=O)O)CCCCC1` [GABAPENTIN] gave an Activity (Rattus norvegicus [9]) of 50%, an Activity (Rattus norvegicus [10]) of 50% and an Activity (Rattus norvegicus [11]) of 50%.
With `CC(=N/O)/C(C)=C/c1ccc(Cl)cc1` the IC50 [4] was 6.9 µM, the IC50 [7] was 8.8 µM and the IC50 [12] was 3.1 µM.
